What was measured:
[1] = tested on: patients with chronic symptomatic heart failure and reduced ejection fraction (HF-REF); test: PARADIGM-HF randomized double-blind trial, LCZ696 versus enalapril: efficacy outcomes; type: in vivo, human; conditions: for Death from any cause, number of patients / Death from any cause, percent of patients / Death from cardiovascular causes or first hospitalization for worsening heart failure (primary composite outcome), number of patients with an event / Death from cardiovascular causes or first hospitalization for worsening heart failure (primary composite outcome), percent of patients / Death from cardiovascular causes, number of patients / Death from cardiovascular causes, percent of patients / Decline in renal function, percent of patients / First hospitalization for worsening heart failure, number of patients / First hospitalization for worsening heart failure, percent of patients / Protocol-defined decline in renal function, number of patients: LCZ696 200 mg bid (N = 4187) or enalapril 10 mg bid (N = 4212); for Death from any cause, number of patients / Death from any cause, percent of patients / Death from cardiovascular causes or first hospitalization for worsening heart failure (primary composite outcome), number of patients with an event / Death from cardiovascular causes or first hospitalization for worsening heart failure (primary composite outcome), percent of patients / Death from cardiovascular causes, number of patients / Death from cardiovascular causes, percent of patients / Decline in renal function, percent of patients / First hospitalization for worsening heart failure, number of patients / First hospitalization for worsening heart failure, percent of patients / Protocol-defined decline in renal function, number of patients / New onset atrial fibrillation, number of patients with an event (as a fraction of number of patients at risk) / New onset atrial fibrillation, percent of patients at risk: median follow-up 27 months; for Progressed to end-stage renal disease, number of patients / New onset atrial fibrillation, number of patients with an event (as a fraction of number of patients at risk) / New onset atrial fibrillation, percent of patients at risk: LCZ696 200 mg bid or enalapril 10 mg bid; for KCCQ clinical summary score, direction of change when zero values were not imputed for patients who died: baseline to month 8
Text: Patients with chronic HF, NYHA functional class II-IV symptoms, an elevated plasma B-type natriuretic peptide (BNP) or NT-proBNP level and, initially, a left ventricular ejection fraction of ≤40% (later amended to ≤35%) are eligible. […] Secondary outcome measures are change in the Kansas City Cardiomyopathy Questionnaire (KCCQ) clinical summary score at 8 months, change in renal function, and time to all-cause mortality.
The trial was designed by the academic members of the Executive Committee (EC) in collaboration with Novartis personnel.
Entry criteria: 1) age 18 years or older and able to give written informed consent 2) New York Heart Association (NYHA) functional class II-IV, 3) left ventricular ejection fraction (LVEF) ≤35% (initially this was ≤40% but changed in a protocol amendment dated Dec. 15, 2010), 4) plasma B-type natriuretic peptide (BNP) ≥150 pg/ml (or N-terminal [NT]-proBNP ≥600 pg/ml) at the screening visit or a BNP ≥100 pg/mL (or NT-proBNP ≥400 pg/ml) and a hospitalization for HF within the last 12 months, 5) treatment with a stable dose of an ACE inhibitor or an ARB equivalent to enalapril 10 mg/d for at least 4 weeks before the screening visit, 6) treatment with stable dose of a β-blocker for at least 4 weeks prior to Visit 1, unless contraindicated or not tolerated. Although not required, the protocol specified that an aldosterone antagonist should also be considered in all patients, taking account of renal function, serum potassium and tolerability. If given, the dose of aldosterone antagonist should be stable for at least 4 weeks prior to the screening visit.
The key exclusion criteria include: • 1. […] Previous history of intolerance to recommended target doses of ACEIs or ARBs. • 3. Known history of angioedema. • 4. Requirement of treatment with both ACEIs and ARBs. • 5. Current acute decompensated heart failure (exacerbation of chronic heart failure manifested by signs and symptoms that may require intravenous therapy). • 6. Symptomatic hypotension and/or a systolic blood pressure (SBP)<100 mmHg at Visit 1 (screening) or <95 mmHg at Visit 3 or at Visit 5 (randomization). • 7. […] Serum potassium >5.2 mmol/L at Visit 1 (screening) or >5.4 mmol/L at Visit 3 or Visit 5 (randomization). • 9. Acute coronary syndrome, stroke, transient ischemic attack, cardiac, carotid or other major CV surgery, percutaneous coronary intervention or carotid angioplasty within the 3 months prior to Visit 1. • 10. Coronary or carotid artery disease likely to require surgical or percutaneous intervention within the 6 months after Visit 1. • 11. Implantation of a cardiac resynchronization therapy device (CRT) within 3 months prior
Visit 1 or intent to implant a CRT. • 12. History of heart transplant or on a transplant list or with left ventricular assistance device. • 13. History of severe pulmonary disease. • 14. Diagnosis of peripartum or chemotherapy induced cardiomyopathy within the 12 months prior to Visit 1. • 15. Documented untreated ventricular arrhythmia with syncopal episodes within the 3 months prior to Visit 1. • 16. Symptomatic bradycardia or second or third degree atrio-ventricular block without a pacemaker. • 17. Presence of haemodynamically significant mitral and/or aortic valve disease, except mitral regurgitation secondary to left ventricular dilatation. • 18. Presence of other haemodynamically significant obstructive lesions of left ventricular outflow tract, including aortic and sub-aortic stenosis. • 19. […] Presence of any other disease with a life expectancy of <5 years.
At the screening visit, patient eligibility was assessed according to the inclusion/exclusion criteria. Any local measurement of LVEF ≤35%, made within the past 6 months, was acceptable provided there was no subsequent LVEF measurement above 35%. Eligibility BNP (and NT-proBNP), serum potassium and estimated glomerular filtration rate (eGFR) were measured in a central laboratory.

[2] = tested on: patients with chronic symptomatic heart failure and reduced ejection fraction (HF-REF); test: PARADIGM-HF: safety and tolerability
Experimental: Patients are assessed at each study visit for hyperkalaemia, symptomatic hypotension, increase in serum creatinine, angioedema and other AEs and serious AEs (SAEs). […] The dose of background disease modifying drugs, such as β-blockers, should not be reduced to facilitate maintenance of study drug. Every attempt should be made to re-challenge the patients so as to maintain as many patients as possible on the target dose of study drug.
All identified cases are submitted to an independent angioedema adjudication committee for a final decision.
Thus, this study employed a seamless design, incorporating “Phase II” into a “Phase III” outcomes trial, as considered further in the Discussion. Further interim safety assessments are planned twice a year.

HF patients = conditions: cited from earlier work
hypertensive patients = conditions: cited from earlier work
[3] = in vivo; cited from earlier work
[4] = tested on: patients with heart failure; conditions: cited from earlier work
[5] = zero values imputed for patients who died
[6] = LCZ696 group compared with enalapril group, stratified Cox model
[7] = over the duration of the trial, LCZ696 versus enalapril
[8] = subgroups by base-line treatment

CCOC(=O)[C@H](CCc1ccccc1)N[C@@H](C)C(=O)N1CCC[C@H]1C(=O)O [Enalapril, (2S)-1-[(2S)-2-{[(2S)-1-ethoxy-1-oxo-4-phenylbutan-2-yl]amino}propanoyl]-pyrrolidine-2-carboxylic acid, reference compound]
Death from any cause, number of patients [1]: 835 patients | Death from any cause, percent of patients [1]: 19.8% | Death from cardiovascular causes or first hospitalization for worsening heart failure (primary composite outcome), number of patients with an event [1]: 1117 patients | Death from cardiovascular causes or first hospitalization for worsening heart failure (primary composite outcome), percent of patients [1]: 26.5% | Death from cardiovascular causes, number of patients [1]: 693 patients | Death from cardiovascular causes, percent of patients [1]: 16.5% | Decline in renal function, percent of patients [1]: 2.6 | First hospitalization for worsening heart failure, number of patients [1]: 658 patients | First hospitalization for worsening heart failure, percent of patients [1]: 15.6% | Protocol-defined decline in renal function, number of patients [1]: 108 patients | Progressed to end-stage renal disease, number of patients [1]: 16 patients | New onset atrial fibrillation, number of patients with an event (as a fraction of number of patients at risk) [1]: 83/2638 | New onset atrial fibrillation, percent of patients at risk [1]: (3.2) | New onset atrial fibrillation, number of patients with an event (as a fraction of number of patients at risk) ([1]; listed as enalapril): 83 patients | KCCQ clinical summary score, direction of change when zero values were not imputed for patients who died [1]: declined | Mean change in KCCQ Clinical Summary Score from baseline to month 8 [1, 5]: −4.63 | Angioedema confirmed by blinded adjudication, number of patients ([2]; human, in vivo): 10 patients | Patients who stopped study medication because of renal impairment ([2]; human, in vivo): 1.4% | Patients who stopped study medication for any adverse event ([2]; human, in vivo): 12.3% | Incidence of angioedema (HF patients): 0.5% | Incidence of angioedema (hypertensive patients): 0.68%

CCCCC(=O)N(Cc1ccc(-c2ccccc2-c2nn[n-]n2)cc1)C(C(=O)[O-])C(C)C.CCOC(=O)C(C)CC(Cc1ccc(-c2ccccc2)cc1)NC(=O)CCC(=O)[O-].[Na+].[Na+].[Na+] [LCZ696, trisodium [3-((1S,3R)-1-biphenyl-4-ylmethyl-3-ethoxycarbonyl-1-butylcarbamoyl)propionate-(S)-3′-methyl-2′-(pentanoyl{2″-(tetrazol-5-ylate)biphenyl-4′-ylmethyl}amino)butyrate] hemipentahydrate]
Death from any cause, number of patients [1]: 711 patients | Death from any cause, percent of patients [1]: 17.0% | Death from cardiovascular causes or first hospitalization for worsening heart failure (primary composite outcome), number of patients with an event [1]: 914 patients | Death from cardiovascular causes or first hospitalization for worsening heart failure (primary composite outcome), percent of patients [1]: 21.8% | Death from cardiovascular causes, number of patients [1]: 558 patients | Death from cardiovascular causes, percent of patients [1]: 13.3% | Decline in renal function, percent of patients [1]: 2.3 | First hospitalization for worsening heart failure, number of patients [1]: 537 patients | First hospitalization for worsening heart failure, percent of patients [1]: 12.8% | Protocol-defined decline in renal function, number of patients [1]: 94 patients | Progressed to end-stage renal disease, number of patients [1]: 8 patients | New onset atrial fibrillation, percent of patients at risk [1]: (3.2) | Death from any cause, hazard ratio [1, 6]: 0.84 | Death from cardiovascular causes, hazard ratio [1, 6]: 0.80 | Decline in renal function, hazard ratio [1, 6]: 0.86 | First hospitalization for worsening heart failure, hazard ratio [1, 6]: 0.79 | New onset atrial fibrillation, hazard ratio [1, 6]: 0.97 | Primary composite outcome, hazard ratio [1, 6]: 0.80 | KCCQ clinical summary score change, between-group difference when zero values were not imputed for patients who died ([1]; LCZ696 group versus enalapril group): 0.95 | KCCQ clinical summary score change at 8 months, between-group difference ([1]; LCZ696 group versus enalapril group, zero values imputed for patients who died): 1.64 | Reduction of the risk of cardiovascular death and the risk of hospitalization for heart failure compared to enalapril ([1]; LCZ696 versus ACE inhibition with enalapril): 20% | Reduction of hospitalization for heart failure compared to enalapril ([1]; LCZ696 versus enalapril): 21% | KCCQ clinical summary score, direction of change when zero values were not imputed for patients who died [1]: improved | Systolic blood pressure at 8 months compared with value at randomization, lower in the LCZ696 group than in the enalapril group ([1]; difference between groups at 8 months): 3.2±0.4 mm Hg | Number of patients needed to treat to prevent one cardiovascular death [1, 7]: 32 patients | Number of patients needed to treat to prevent one primary event [1, 7]: 21 patients | Mean change in KCCQ Clinical Summary Score from baseline to month 8 [1, 5]: −2.99 | Angioedema confirmed by blinded adjudication, number of patients ([2]; following randomization): 19 patients | Cough as an adverse event, compared with the enalapril group ([2]; following randomization): less and less likely | Experience of serum creatinine level ≥2.5 mg/dl, compared with the enalapril group ([2]; following randomization): less likely | Experience of serum potassium level >6.0 mmol/l, compared with the enalapril group ([2]; following randomization): less likely | Hypotension / report of symptomatic hypotension, compared with the enalapril group ([2]; following randomization): more and more likely | Patients who stopped study medication because of renal impairment ([2]; following randomization): 0.7% | Patients who stopped study medication for any adverse event ([2]; following randomization): 10.7% | Hyperkalemia, compared with the enalapril group ([2]; in vivo): less | Non-serious angioedema, compared with the enalapril group ([2]; in vivo): more | Renal impairment, compared with the enalapril group ([2]; in vivo): less

O=C(N[C@H]1CCS[C@H]2CCC[C@@H](C(=O)O)N2C1=O)[C@@H](S)Cc1ccccc1 [omapatrilat]
BP lowering as compared to other therapeutic classes, including ACE inhibitors and calcium channel blockers [3]: greater BP lowering | Incidence of angioedema (HF patients): 0.8% | Mortality and morbidity in patients with HF relative to enalapril (HF patients): encouraging trend toward reducing mortality and morbidity | Incidence of angioedema (hypertensive patients): 2.17%

CCCCC(=O)N(Cc1ccc(-c2ccccc2-c2nnn[nH]2)cc1)[C@H](C(=O)O)C(C)C [valsartan, (S)—N-valeryl-N-{[2′-(1H-tetrazole-5-yl)-biphenyl-4-yl]-methyl}-valine]
Incidence of the combined end point of mortality and morbidity, lower with valsartan than with placebo ([4]; Val-HeFT): 13.2% | NYHA class, ejection fraction, signs and symptoms of heart failure, and quality of life as compared with placebo ([4]; Val-HeFT): significant improvements | Number of patients hospitalized for heart failure ([4]; Val-HeFT): 346 patients | Overall mortality compared with placebo group ([4]; Val-HeFT): similar | Percent of patients hospitalized for heart failure ([4]; Val-HeFT): 13.8% | Post hoc analysis of the combined end point and mortality, patients receiving both ACE inhibitors and beta-blockers [4, 8]: adverse effect | Post hoc analysis of the combined end point and mortality, patients receiving neither or one of ACE inhibitors or beta-blockers [4, 8]: favorable effect | Combined end point of mortality and morbidity, relative risk ([4]; valsartan versus placebo): 0.87

From US20210077461A1, “NEW USE” (Novartis AG, priority 2013, published 2021)
